# How the values were obtained:
# H157 NSCLC cells = assay: Caspase 3/7 activation, H157; format: cell-based; set-up: key: −: lack of caspase 3/7 activation after 24 hours of compound treatment; ++: moderate; +++: strong; ++++: very strong; settings: H157, KRAS^G12R; BRG1 MUT, LKB1 MUT, CDKN2A WT; 24 hours
# Description: (§1) A panel of 24 non-small cell lung carcinoma (NSCLC) cell lines harboring RAS mutations was analyzed for genomic alterations, gene expression profiling and protein phosphorylation in MAPK and PI3K pathways. Inhibition of cell growth and induction of apoptosis were determined by CellTiter-Glo® and caspase 3/7 activation assays after 72 and 24 hours of treatment, respectively.
# H1792 NSCLC cells = assay: Caspase 3/7 activation, H1792; format: cell-based; set-up: key: −: lack of caspase 3/7 activation after 24 hours of compound treatment; ++: moderate; +++: strong; ++++: very strong; settings: H1792, KRAS^G12c; BRG1 WT, LKB1 WT, CDKN2A WT; 24 hours
# Description: (§2) Inhibition of cell growth and induction of apoptosis were determined by CellTiter-Glo® and caspase 3/7 activation assays after 72 and 24 hours of treatment, respectively.
# H2030 NSCLC cells = assay: Caspase 3/7 activation, H2030; format: cell-based; set-up: key: −: lack of caspase 3/7 activation after 24 hours of compound treatment; ++: moderate; +++: strong; ++++: very strong; settings: H2030, KRAS^G12c; BRG1 MUT, LKB1 MUT, CDKN2A WT; 24 hours
# Description: as §2
# Calu6 NSCLC cells = assay: Caspase 3/7 activation, Calu6; format: cell-based; set-up: key: −: lack of caspase 3/7 activation after 24 hours of compound treatment; ++: moderate; +++: strong; ++++: very strong; settings: Calu6, KRAS^Q61K; BRG1 WT, LKB1 WT, CDKN2A WT; 24 hours
# Description: as §2
# H727 NSCLC cells = assay: Caspase 3/7 activation, H727; format: cell-based; set-up: key: −: lack of caspase 3/7 activation after 24 hours of compound treatment; ++: moderate; +++: strong; ++++: very strong; settings: H727, KRAS^G12V; BRG1 WT, LKB1 WT, CDKN2A WT; 24 hours
# Description: as §2
# SW1573 NSCLC cells = assay: Caspase 3/7 activation, SW1573; format: cell-based; set-up: key: −: lack of caspase 3/7 activation after 24 hours of compound treatment; ++: moderate; +++: strong; ++++: very strong; settings: SW1573, KRAS^G12C; BRG1 WT, LKB1 WT, CDKN2A MUT; 24 hours
# Description: as §1
# H358 NSCLC cells = assay: Caspase 3/7 activation, H358; format: cell-based; set-up: key: −: lack of caspase 3/7 activation after 24 hours of compound treatment; ++: moderate; +++: strong; ++++: very strong; settings: H358, KRAS^G12c; BRG1 WT, LKB1 WT, CDKN2A WT; 24 hours
# Description: as §2
# Calu1 NSCLC cells = assay: Caspase 3/7 activation, Calu1; format: cell-based; set-up: key: −: lack of caspase 3/7 activation after 24 hours of compound treatment; ++: moderate; +++: strong; ++++: very strong; settings: Calu1, KRAS^G12c; BRG1 WT, LKB1 WT, CDKN2A WT; 24 hours
# Description: as §1
# H441 NSCLC cells = assay: Caspase 3/7 activation, H441; format: cell-based; set-up: key: −: lack of caspase 3/7 activation after 24 hours of compound treatment; ++: moderate; +++: strong; ++++: very strong; settings: H441, KRAS^G12V; BRG1 WT, LKB1 WT, CDKN2A WT; 24 hours
# Description: as §2
# SW900 NSCLC cells = assay: Caspase 3/7 activation, SW900; format: cell-based; set-up: key: −: lack of caspase 3/7 activation after 24 hours of compound treatment; ++: moderate; +++: strong; ++++: very strong; settings: SW900, KRAS^G12V; BRG1 WT, LKB1 WT, CDKN2A MUT; 24 hours
# Description: as §2
# H2347 NSCLC cells = assay: Caspase 3/7 activation, H2347; format: cell-based; set-up: key: −: lack of caspase 3/7 activation after 24 hours of compound treatment; ++: moderate; +++: strong; ++++: very strong; settings: H2347, KRAS^Q61K; BRG1 WT, LKB1 WT, CDKN2A WT; 24 hours
# Description: as §2
# H2009 NSCLC cells = assay: Caspase 3/7 activation, H2009; format: cell-based; set-up: key: −: lack of caspase 3/7 activation after 24 hours of compound treatment; ++: moderate; +++: strong; ++++: very strong; settings: H2009, KRAS^G12A; BRG1 WT, LKB1 WT, CDKN2A WT; 24 hours
# Description: as §2
# [1] = test system: RAS-mutant NSCLC cell lines; assay: Inhibition of cell growth (CellTiter-Glo) in panel of RAS-mutant NSCLC cell lines; settings: Ras mut NSCLC cell lines; CellTiter-Glo, 72 hours of treatment
# Description: Cells are plated in 384-well plates at 500 cells/well in culture media appropriate for each cell type, supplemented with 10% FBS and 1% penicillin/streptomycin, and incubated overnight at 37° C., 5% CO2. Cells are treated in a grid manner with dilution of Compound A^2 (20 dilutions, including no compound, of 2-fold dilutions starting from 1-20 μM depending of compound) from left to right on 384-well plate and also treated with Compound B^2 (20 dilutions, including no compound, of 2-fold dilutions starting from 1-20 μM depending of compound) from top to bottom on 384-well plate and incubated as above for a further 72 hours. In some instances compounds are added in a staggered manner and incubation time can be extended up to 7 days. Cell growth is measured using CellTiter-Glo® reagent according to the manufacturer's protocol and signals are read on a PerkinElmer EnVision™ reader set for luminescence mode with a 0.5-second read.
# Results are expressed as a percentage of the t=0 value and plotted against compound(s) concentration. The t=0 value is normalized to 100% and represents the number of cells present at the time of compound addition. The cellular response is determined for each compound and/or compound combination using a 4- or 6-parameter curve fit of cell viability against concentration using the IDBS XLfit plug-in for Microsoft Excel software and determining the concentration required for 50% inhibition of cell growth (gIC50). Background correction is made by subtraction of values from wells containing no cells.
# as §1
# A427 NSCLC cells = assay: Caspase 3/7 activation, A427; format: cell-based; set-up: key: −: lack of caspase 3/7 activation after 24 hours of compound treatment; ++: moderate; +++: strong; ++++: very strong; settings: A427, KRAS^G12D; BRG1 MUT, LKB1 MUT, CDKN2A WT; 24 hours
# Description: as §2
# H2122 NSCLC cells = assay: Caspase 3/7 activation, H2122; format: cell-based; set-up: key: −: lack of caspase 3/7 activation after 24 hours of compound treatment; ++: moderate; +++: strong; ++++: very strong; settings: H2122, KRAS^G12c; BRG1 WT, LKB1 MUT, CDKN2A MUT; 24 hours
# Description: as §2
# H1155 NSCLC cells = assay: Caspase 3/7 activation, H1155; format: cell-based; set-up: key: −: lack of caspase 3/7 activation after 24 hours of compound treatment; ++: moderate; +++: strong; ++++: very strong; settings: H1155, KRAS^Q61H; BRG1 WT, LKB1 WT, CDKN2A WT; 24 hours
# Description: as §1
# HOP62 NSCLC cells = assay: Caspase 3/7 activation, HOP62; format: cell-based; set-up: key: −: lack of caspase 3/7 activation after 24 hours of compound treatment; ++: moderate; +++: strong; ++++: very strong; settings: HOP62, KRAS^G12c; BRG1 WT, LKB1 WT, CDKN2A MUT; 24 hours
# Description: as §1
# COR-L23 NSCLC cells = assay: Caspase 3/7 activation, COR-L23; format: cell-based; set-up: key: −: lack of caspase 3/7 activation after 24 hours of compound treatment; ++: moderate; +++: strong; ++++: very strong; settings: COR-L23, KRAS^G12V; BRG1 WT, LKB1 WT, CDKN2A WT; 24 hours
# Description: as §1
# H2291 NSCLC cells = assay: Caspase 3/7 activation, H2291; format: cell-based; set-up: key: −: lack of caspase 3/7 activation after 24 hours of compound treatment; ++: moderate; +++: strong; ++++: very strong; settings: H2291, KRAS^G12F; BRG1 WT, LKB1 WT, CDKN2A WT; 24 hours
# Description: as §2
Compound,Apoptosis Response (caspase 3/7 activation) (H157 NSCLC cells),Apoptosis Response (caspase 3/7 activation) (H1792 NSCLC cells),Apoptosis Response (caspase 3/7 activation) (H2030 NSCLC cells),Apoptosis Response (caspase 3/7 activation) (Calu6 NSCLC cells),Apoptosis Response (caspase 3/7 activation) (H727 NSCLC cells),Apoptosis Response (caspase 3/7 activation) (SW1573 NSCLC cells),Apoptosis Response (caspase 3/7 activation) (H358 NSCLC cells),Apoptosis Response (caspase 3/7 activation) (Calu1 NSCLC cells),Apoptosis Response (caspase 3/7 activation) (H441 NSCLC cells),Apoptosis Response (caspase 3/7 activation) (SW900 NSCLC cells),Apoptosis Response (caspase 3/7 activation) (H2347 NSCLC cells),Apoptosis Response (caspase 3/7 activation) (H2009 NSCLC cells),"Response Rate (sensitivity/total lines tested), Cell growth inhibition [1]",Apoptosis Response (caspase 3/7 activation) (A427 NSCLC cells),Apoptosis Response (caspase 3/7 activation) (H2122 NSCLC cells),Apoptosis Response (caspase 3/7 activation) (H1155 NSCLC cells),Apoptosis Response (caspase 3/7 activation) (HOP62 NSCLC cells),Apoptosis Response (caspase 3/7 activation) (COR-L23 NSCLC cells),Apoptosis Response (caspase 3/7 activation) (H2291 NSCLC cells)
"CC(=O)Nc1cccc(-n2c(=O)n(C3CC3)c(=O)c3c(Nc4ccc(I)cc4F)n(C)c(=O)c(C)c32)c1 [Compound A, N-{3-[3-cyclopropyl-5-(2-fluoro-4-iodo-phenylamino)-6,8-dimethyl-2,4,7-trioxo-3,4,6,7-tetrahydro-2H-pyrido[4,3-d]pyrimidin-1-yl]phenyl}acetamide]",−,++,−,++,++,−,−,−,−,−,++,−,38% (9/24),−,++,−,−,−,++
"CC(=O)O[C@@]12CO[C@@H]1C[C@H](O)[C@@]1(C)C(=O)[C@H](O)C3=C(C)[C@@H](OC(=O)[C@H](O)[C@@H](NC(=O)OC(C)(C)C)c4ccccc4)C[C@@](O)([C@@H](OC(=O)c4ccccc4)[C@H]21)C3(C)C [Docataxel, (2R,3S)—N-carboxy-3-phenylisoserine,N-tert-butyl ester, 13-ester with 5β-20-epoxy-1,2α,4,7β,10β,13α-hexahydroxytax-11-en-9-one 4-acetate 2-benzoate, trihydrate]",++,+++,++,++,−,−,++,−,−,−,−,−,88% (21/24),++,−,−,++,−,−
